{"source": "patent US20220160842A1", "about": "“METHOD OF TREATING INFECTIVE ENDOCARDITIS” (priority 2019, published 2022)", "assay_in_all_cases": "MIC by broth microdilution", "key": {"[1]": {"system": "S. dysgalactiae", "assay_type": "cell-based, Streptococcus dysgalactiae", "description": "(§1) Minimal inhibitory concentrations (MICs) of exebacase against staphylococci were determined by broth microdilution (BMD) using a nonstandard antimicrobial susceptibility testing (AST) medium comprised of cation-adjusted Mueller Hinton broth (caMHB) supplemented with horse serum (Sigma Aldrich) and dithiothreitol (DTT; Sigma Aldrich) to final concentrations of 25% and 0.5 mM, respectively. This medium, referred to as caMHB-HSD, is approved for use in exebacase AST by the Clinical and Laboratory Standards Institute (CLSI) (CLSI. 2017, Jan. 16-17. AST Subcommittee Working Group Meetings and Plenary. AST Meeting Files & Resources, clsi.org/education/microbiology/ast/ast-meeting-files-resources/. Additional supplementation with 2.5% lysed red blood cells (Remel™, ThermoFisher) was included for analyses of streptococcal isolates, as recommended by CLSI. See CLSI, 2015. Methods for Dilution Antimicrobial Susceptibility Tests for Bacteria That Grow Aerobically, 10th Edition. Clinical and Laboratory Standards Institute, Wayne, Pa.\n(§2) Daptomycin (Sigma Aldrich) and vancomycin hydrochloride (Sigma Aldrich) were tested following the reference BMD method for each. See CLSI. 2015. Methods for Dilution Antimicrobial Susceptibility Tests for Bacteria That Grow Aerobically, 10th Edition. Clinical and Laboratory Standards Institute, Wayne, Pa."}, "[2]": {"system": "S. warneri", "assay_type": "cell-based, Staphylococcus warneri", "description": "as §1, §2"}, "[3]": {"system": "S. salivarius", "assay_type": "cell-based, Streptococcus salivarius", "description": "as §1, §2"}, "[4]": {"system": "S. agalactiae", "assay_type": "cell-based, Streptococcus agalactiae", "description": "as §1, §2"}, "[5]": {"system": "all staphylococci tested", "assay_type": "cell-based", "description": "as §2"}, "[6]": {"system": "E. faecalis", "assay_type": "cell-based, Enterococcus faecalis", "description": "as §1, §2"}, "[7]": {"system": "S. pneumoniae", "assay_type": "cell-based, Streptococcus pneumoniae", "description": "as §1, §2"}, "[8]": {"system": "S. anginosus", "assay_type": "cell-based, Streptococcus anginosus", "description": "as §1, §2"}, "[9]": {"system": "S. mutans", "assay_type": "cell-based, Streptococcus mutans", "description": "as §1, §2"}, "[10]": {"system": "S. capitis", "assay_type": "cell-based, Staphylococcus capitis", "description": "as §1, §2"}, "[11]": {"system": "S. gordonii", "assay_type": "cell-based, Streptococcus gordonii", "description": "as §1, §2"}, "[12]": {"system": "S. lugdunensis", "assay_type": "cell-based, Staphylococcus lugdunensis", "description": "as §1, §2"}, "[13]": {"system": "S. oralis", "assay_type": "cell-based, Streptococcus oralis", "description": "as §1, §2"}, "[14]": {"system": "S. haemolyticus", "assay_type": "cell-based, Staphylococcus haemolyticus", "description": "as §1, §2"}, "[15]": {"system": "S. mitis", "assay_type": "cell-based, Streptococcus mitis", "description": "as §1, §2"}, "[16]": {"system": "S. gallolyticus", "assay_type": "cell-based, Streptococcus gallolyticus", "description": "as §1, §2"}, "[17]": {"system": "S. aureus (MRSA)", "assay_type": "cell-based, Staphylococcus aureus", "description": "as §1, §2"}, "[18]": {"system": "S. aureus (MSSA)", "assay_type": "cell-based, Staphylococcus aureus", "description": "as §1, §2"}, "[19]": {"system": "S. pyogenes", "assay_type": "cell-based, Streptococcus pyogenes", "description": "as §1, §2"}, "[20]": {"system": "S. sanguinis", "assay_type": "cell-based, Streptococcus sanguinis", "description": "as §1, §2"}}, "note": "Counter-ions that a name gives are not always drawn."}
{"smiles": "CN[C@H](CC(C)C)C(=O)N[C@H]1C(=O)N[C@@H](CC(N)=O)C(=O)N[C@H]2C(=O)N[C@H]3C(=O)N[C@H](C(=O)N[C@H](C(=O)O)c4cc(O)cc(O)c4-c4cc3ccc4O)[C@H](O)c3ccc(c(Cl)c3)Oc3cc2cc(c3O[C@@H]2O[C@H](CO)[C@@H](O)[C@H](O)[C@H]2O[C@H]2C[C@](C)(N)[C@H](O)[C@H](C)O2)Oc2ccc(cc2Cl)[C@H]1O", "note": "[VAN, vancomycin hydrochloride]", "values": [{"measurement": "MIC Range", "setting": "[1]; S. dysgalactiae (group G), N=22", "result": "0.25 to 1", "unit": "µg/mL"}, {"measurement": "MIC50", "setting": "[1]; Streptococcus dysgalactiae", "result": 0.5, "unit": "µg/mL"}, {"measurement": "MIC90", "setting": "[1]; Streptococcus dysgalactiae", "result": 0.5, "unit": "µg/mL"}, {"measurement": "MIC Range", "setting": "[2]; S. warneri, N=23", "result": "0.25 to 2", "unit": "µg/mL"}, {"measurement": "MIC50", "setting": "[2]; Staphylococcus warneri", "result": 1, "unit": "µg/mL"}, {"measurement": "MIC90", "setting": "[2]; Staphylococcus warneri", "result": 2, "unit": "µg/mL"}, {"measurement": "MIC Range", "setting": "[3]; S. salivarius (viridans), N=12", "result": "0.25 to 0.5", "unit": "µg/mL"}, {"measurement": "MIC50", "setting": "[3]; Streptococcus salivarius", "result": 0.5, "unit": "µg/mL"}, {"measurement": "MIC90", "setting": "[3]; Streptococcus salivarius", "result": 0.5, "unit": "µg/mL"}, {"measurement": "MIC Range", "setting": "[4]; S. agalactiae (group B), N=97", "result": "0.25 to 0.5", "unit": "µg/mL"}, {"measurement": "MIC50", "setting": "[4]; Streptococcus agalactiae", "result": 0.5, "unit": "µg/mL"}, {"measurement": "MIC90", "setting": "[4]; Streptococcus agalactiae", "result": 0.5, "unit": "µg/mL"}, {"measurement": "MIC Range", "setting": "[5]", "result": "0.5 to 4", "unit": "µg/mL"}, {"measurement": "MIC Range", "setting": "[6]; E. faecalis (formerly group D), N=18", "result": "0.5 to 2", "unit": "µg/mL"}, {"measurement": "MIC50", "setting": "[6]; Enterococcus faecalis", "result": 1, "unit": "µg/mL"}, {"measurement": "MIC90", "setting": "[6]; Enterococcus faecalis", "result": 2, "unit": "µg/mL"}, {"measurement": "MIC Range", "setting": "[7]; S. pneumoniae, N=59", "result": "0.25 to 0.5", "unit": "µg/mL"}, {"measurement": "MIC50", "setting": "[7]; Streptococcus pneumoniae", "result": 0.25, "unit": "µg/mL"}, {"measurement": "MIC90", "setting": "[7]; Streptococcus pneumoniae", "result": 0.5, "unit": "µg/mL"}, {"measurement": "MIC Range", "setting": "[8]; S. anginosus (viridans), N=10", "result": "0.5 to 1", "unit": "µg/mL"}, {"measurement": "MIC50", "setting": "[8]; Streptococcus anginosus", "result": 0.5, "unit": "µg/mL"}, {"measurement": "MIC90", "setting": "[8]; Streptococcus anginosus", "result": 1, "unit": "µg/mL"}, {"measurement": "MIC Range", "setting": "[9]; S. mutans (viridans), N=22", "result": "0.25 to 1", "unit": "µg/mL"}, {"measurement": "MIC50", "setting": "[9]; Streptococcus mutans", "result": 1, "unit": "µg/mL"}, {"measurement": "MIC90", "setting": "[9]; Streptococcus mutans", "result": 1, "unit": "µg/mL"}, {"measurement": "MIC Range", "setting": "[10]; S. capitis, N=13", "result": "0.5 to 2", "unit": "µg/mL"}, {"measurement": "MIC50", "setting": "[10]; Staphylococcus capitis", "result": 1, "unit": "µg/mL"}, {"measurement": "MIC90", "setting": "[10]; Staphylococcus capitis", "result": 1, "unit": "µg/mL"}, {"measurement": "MIC Range", "setting": "[11]; S. gordonii (viridans), N=11", "result": "0.5 to 1", "unit": "µg/mL"}, {"measurement": "MIC50", "setting": "[11]; Streptococcus gordonii", "result": 0.5, "unit": "µg/mL"}, {"measurement": "MIC90", "setting": "[11]; Streptococcus gordonii", "result": 1, "unit": "µg/mL"}, {"measurement": "MIC Range", "setting": "[12]; S. lugdunensis, N=49", "result": "0.5 to 2", "unit": "µg/mL"}, {"measurement": "MIC50", "setting": "[12]; Staphylococcus lugdunensis", "result": 1, "unit": "µg/mL"}, {"measurement": "MIC90", "setting": "[12]; Staphylococcus lugdunensis", "result": 1, "unit": "µg/mL"}, {"measurement": "MIC Range", "setting": "[13]; S. oralis (viridans), N=15", "result": "0.5 to 1", "unit": "µg/mL"}, {"measurement": "MIC50", "setting": "[13]; Streptococcus oralis", "result": 0.5, "unit": "µg/mL"}, {"measurement": "MIC90", "setting": "[13]; Streptococcus oralis", "result": 1, "unit": "µg/mL"}, {"measurement": "MIC Range", "setting": "[14]; S. haemolyticus, N=36", "result": "0.5 to 4", "unit": "µg/mL"}, {"measurement": "MIC50", "setting": "[14]; Staphylococcus haemolyticus", "result": 1, "unit": "µg/mL"}, {"measurement": "MIC90", "setting": "[14]; Staphylococcus haemolyticus", "result": 2, "unit": "µg/mL"}, {"measurement": "MIC Range", "setting": "[15]; S. mitis (viridans), N=18", "result": "0.25 to 0.5", "unit": "µg/mL"}, {"measurement": "MIC50", "setting": "[15]; Streptococcus mitis", "result": 0.5, "unit": "µg/mL"}, {"measurement": "MIC90", "setting": "[15]; Streptococcus mitis", "result": 0.5, "unit": "µg/mL"}, {"measurement": "MIC Range", "setting": "[16]; S. gallolyticus (bovis), N=19", "result": "0.25 to 0.5", "unit": "µg/mL"}, {"measurement": "MIC50", "setting": "[16]; Streptococcus gallolyticus", "result": 0.25, "unit": "µg/mL"}, {"measurement": "MIC90", "setting": "[16]; Streptococcus gallolyticus", "result": 0.5, "unit": "µg/mL"}, {"measurement": "MIC Range", "setting": "[17]; S. aureus (MRSA), N=74", "result": "1 to 2", "unit": "µg/mL"}, {"measurement": "MIC50", "setting": "[17]; Staphylococcus aureus, MRSA", "result": 1, "unit": "µg/mL"}, {"measurement": "MIC90", "setting": "[17]; Staphylococcus aureus, MRSA", "result": 1, "unit": "µg/mL"}, {"measurement": "MIC Range", "setting": "[18]; S. aureus (MSSA), N=73", "result": "0.5 to 1", "unit": "µg/mL"}, {"measurement": "MIC50", "setting": "[18]; Staphylococcus aureus, MSSA", "result": 1, "unit": "µg/mL"}, {"measurement": "MIC90", "setting": "[18]; Staphylococcus aureus, MSSA", "result": 1, "unit": "µg/mL"}, {"measurement": "MIC Range", "setting": "[19]; S. pyogenes (group A), N=100", "result": "0.25 to 0.5", "unit": "µg/mL"}, {"measurement": "MIC50", "setting": "[19]; Streptococcus pyogenes", "result": 0.5, "unit": "µg/mL"}, {"measurement": "MIC90", "setting": "[19]; Streptococcus pyogenes", "result": 0.5, "unit": "µg/mL"}, {"measurement": "MIC Range", "setting": "[20]; S. sanguinis (viridans), N=15", "result": "0.5 to 2", "unit": "µg/mL"}, {"measurement": "MIC50", "setting": "[20]; Streptococcus sanguinis", "result": 0.5, "unit": "µg/mL"}, {"measurement": "MIC90", "setting": "[20]; Streptococcus sanguinis", "result": 0.5, "unit": "µg/mL"}]}
